According to US7842698B2, “Pyridine methylene azolidinones and use thereof phosphoinositide inhibitors” (Merck Serono S.A., priority 2004, dated 2010):
Where a name gives a salt, the structure may show the parent alone. Read-outs that look alike come from different tables or passages of the source.

Legend:
[1] = biological target: Human recombinant GST-PI3Kγ (Homo sapiens, UniProt P48736); assay: High throughput PI3K lipid kinase assay (scintillation proximity assay, neomycin-coated SPA beads); assay type: biochemical; conditions: [33P]γ-ATP, 180 minutes at room temperature
Source text: a) High Throughput PI3K Lipid Kinase Assay (Binding Assay):
The efficacy of compounds of the invention in inhibiting the PI3K induced-lipid phosphorylation may be tested in the following binding assay.
The assay combines the scintillation proximity assay technology (SPA, Amersham) with the capacity of neomycin (a polycationic antibiotic) to bind phospholipids with high affinity and specificity. The Scintillation Proximity Assay is based on the properties of weakly emitting isotopes (such as ^3H, ^125I, ^33P). Coating SPA beads with neomycin allows the detection of phosphorylated lipid substrates after incubation with recombinant PI3K and radioactive ATP in the same well, by capturing the radioactive phospholipids to the SPA beads through their specific binding to neomycin.
To a 384 wells MTP containing 5 μl of the test compound of Formula (I) (solubilized in 6% DMSO; to yield a concentration of 100, 30, 10, 3, 1, 0.3, 0.1, 0.03, 0.01, 0.001 μM of the test compound), the following assay components are added. 1) 5 μl (58 ng) of Human recombinant GST-PI3Kγ (in Hepes 40 mM, pH 7.4, DTT 1 mM and ethyleneglycol 5%) 2) 10 μl of lipid micelles and 3) 10 μl of Kinase buffer ([^33P]γ-ATP 45 μM/60 n Ci, MgCl2 30 mM, DTT 1 mM, β-Glycerophosphate 1 mM, Na3VO4 100 μM, Na Cholate 0.3%, in Hepes 40 mM, pH 7.4). After incubation at room temperature for 180 minutes, with gentle agitation, the reaction is stopped by addition of 60 μl of a solution containing 100 μg of neomycin-coated PVT SPA beads in PBS containing ATP 10 mM and EDTA 5 mM. The assay is further incubated at room temperature for 60 minutes with gentle agitation to allow binding of phospholipids to neomycin-SPA beads. After precipitation of the neomycin-coated PVT SPA beads for 5 minutes at 1500× g, radioactive PtdIns(3)P is quantified by scintillation counting in a Wallac MicroBeta™ plate counter.
The values indicated in Table I below refer to the IC50 (nM) with respect to PI3Kγ, i.e. the amount necessary to achieve 50% inhibition of said target. Said values show a considerable inhibitory potency of thiazole compounds with regard to PI3Kγ.

phospholipases = conditions: cited from earlier work
Class I PI3-kinases = conditions: Fruman et al., 1998, cited from earlier work
[2] = test system: Akt/PKB phosphorylation in Raw 264-7 macrophages; assay: Cell based ELISA to monitor PI3K inhibition: Akt/PKB phosphorylation in macrophages after stimulation with Complement 5a; conditions: Mus musculus, RAW264.7, 50 nM Complement 5a for 5 minutes, inhibitors pretreated 20 minutes, phospho Serine 473 Akt, read-out: Cell Assay (P-Akt, Elisa) IC50
Description: b) Cell Based ELISA to Monitor PI3K Inhibition:
The efficacy of compounds of the invention in inhibiting the PI3K induced Akt/PKB phosphorylation may be tested in the following cell based assay.
Measurement of Akt/PKB phosphorylation in macrophages after stimulation with Complement 5a: Raw 264: Raw 264-7 macrophages (cultured in DMEM-F12 medium containing 10% Fetal Calf serum and antibiotics) are plated at 20′000 cells/well in a 96 MTP 24 h before cell stimulation. Previous to the stimulation with 50 nM of Complement 5a during 5 minutes, Cells are serum starved for 2 h, and pretreated with inhibitors for 20 minutes. After stimulation cells are fixed in 4% formaldehyde for 20 minutes and washed 3 times in PBS containing 1% Triton X-100 (PBS/Triton). Endogenous peroxidase is blocked by a 20 minutes incubation in 0.6% H2O2 and 0.1% Sodium Azide in PBS/Triton and washed 3 times in PBS/Triton. Cells are then blocked by 60 minutes incubation with 10% fetal calf serum in PBS/Triton. Next, phosphorylated Akt/PKB is detected by an overnight incubation at 4° C. with first antibody (anti phospho Serine 473 Akt IHC, Cell Signaling) diluted 800-fold in PBS/Triton, containing 5% bovine serum albumin (BSA). […] The reaction is stopped by addition of 50 μl of 1 M SO4H2 and absorbance is read at 450 nm. […]

Chain of Human recombinant GST-PI3Kγ (P48736 whole entry): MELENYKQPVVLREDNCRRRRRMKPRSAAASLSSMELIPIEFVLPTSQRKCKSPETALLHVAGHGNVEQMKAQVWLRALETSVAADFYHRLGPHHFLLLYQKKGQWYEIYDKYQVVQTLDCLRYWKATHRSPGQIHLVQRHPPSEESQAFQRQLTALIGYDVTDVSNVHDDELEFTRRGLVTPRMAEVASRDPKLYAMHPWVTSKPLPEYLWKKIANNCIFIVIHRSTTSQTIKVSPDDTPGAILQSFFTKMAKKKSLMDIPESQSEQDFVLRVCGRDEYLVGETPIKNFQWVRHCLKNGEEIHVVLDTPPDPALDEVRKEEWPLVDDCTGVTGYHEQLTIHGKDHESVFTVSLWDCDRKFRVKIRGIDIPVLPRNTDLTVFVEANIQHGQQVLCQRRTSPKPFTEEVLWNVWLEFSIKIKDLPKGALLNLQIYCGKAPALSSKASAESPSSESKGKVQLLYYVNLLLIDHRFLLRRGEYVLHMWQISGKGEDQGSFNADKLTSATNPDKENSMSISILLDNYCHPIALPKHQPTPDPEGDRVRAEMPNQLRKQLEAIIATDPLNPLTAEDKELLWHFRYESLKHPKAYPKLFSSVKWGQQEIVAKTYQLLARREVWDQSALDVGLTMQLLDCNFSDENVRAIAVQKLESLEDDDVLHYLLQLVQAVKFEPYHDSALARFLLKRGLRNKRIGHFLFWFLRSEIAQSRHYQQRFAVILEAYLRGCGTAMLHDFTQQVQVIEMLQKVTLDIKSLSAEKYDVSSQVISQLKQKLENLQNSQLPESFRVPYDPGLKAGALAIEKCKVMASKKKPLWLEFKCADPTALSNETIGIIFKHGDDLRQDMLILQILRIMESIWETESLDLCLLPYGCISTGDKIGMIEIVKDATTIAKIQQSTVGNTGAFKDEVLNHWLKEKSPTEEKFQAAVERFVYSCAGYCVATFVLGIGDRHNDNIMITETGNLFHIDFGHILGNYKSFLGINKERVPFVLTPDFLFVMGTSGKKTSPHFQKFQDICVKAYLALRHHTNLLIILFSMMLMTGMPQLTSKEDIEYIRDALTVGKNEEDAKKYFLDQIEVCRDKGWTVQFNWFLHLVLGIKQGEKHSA

Row | SMILES | IC50 [1] [nM] | also measured
1 | O=C1NC(=O)/C(=C/c2ccc3nccnc3n2)S1 [Example 4, 5-Pyrido[2,3-b]pyrazin-6-ylmethylene-thiazolidine-2,4-dione] | 20 | 
2 | O=C1NC(=O)/C(=C/c2ccc3ncnc(N4CCCCC4)c3n2)S1 (as salt: potassium) [Example 1, (5Z)-5-{[4-(1-piperidinyl)pyrido[3,2-d]pyrimidin-6-yl]methylene}-1,3-thiazolidine-2,4-dione potassium salt] |  | melting point: 319 °C
3 | O=c1cc(N2CCOCC2)oc2c(-c3ccccc3)cccc12 [LY294002] |  | inhibitory activity on phospholipases (phospholipases): some inhibitory activity; IC50 (Class I PI3-kinases; LY294002, read-out: IC50 against each of these PI3-kinases (Class I)): 15 to 20 µM
4 | COC[C@H]1OC(=O)c2coc3c2[C@@]1(C)C1=C(C3=O)[C@@H]2CCC(=O)[C@@]2(C)C[C@H]1OC(C)=O [wortmannin] |  | IC50 (Class I PI3-kinases; wortmannin, read-out: IC50 against each of the various Class I PI3-kinases): 0.001 to 0.01 µM
5 | O=C1NC(=O)/C(=C/c2ccc3ncnc(N4CCC(C(F)(F)F)CC4)c3n2)S1 [Example 3, (5Z)-5-({4-[4-(trifluoromethyl)-1-piperidinyl]pyrido[3,2-d]pyrimidin-6-yl}methylene)-1,3-thiazolidine-2,4-dione potassium salt] | 6 | IC50 [2]: < 10 nM
6 | O=C1NC(=O)/C(=C/c2ccc3ncnc(N4CCCCC4)c3n2)S1 [Example 1, (5Z)-5-{[4-(1-piperidinyl)pyrido[3,2-d]pyrimidin-6-yl]methylene}-1,3-thiazolidine-2,4-dione potassium salt] | 4 | IC50 [2]: < 10 nM

Further lines, with some results ahead:

Row | IC50 [1] [nM] | SMILES | also measured
7 | 2 | O=C1NC(=S)SC1=Cc1ccc2ncnc(N3CCC(F)CC3)c2n1 [Example 6, 5-[4-(4-Fluoro-piperidin-1-yl)-pyrido[3,2-d]pyrimidin-6-ylmethylene]-2-thioxo-thiazolidin-4-one] | 
8 | 35 | O=C1NC(=O)/C(=C/c2ccc3occc3n2)S1 [Example 5, 5-Furo[3,2-b]pyridin-5-ylmethylene-thiazolidine-2,4-dione] | 
9 | 7 | CN(C)CCCC(=O)N1CCc2cc(-n3cnc4ccc(/C=C5\SC(=O)NC5=O)nc43)ccc21 [Example 12, (5Z)-5-[(3-{1-[4-(dimethylamino)butanoyl]-2,3-dihydro-1H-indol-5-yl}-3H-imidazo[4,5-b]pyridin-5-yl)methylene]-1,3-thiazolidine-2,4-dione] | 
10 | 10 | COc1cc(OC)cc(-n2cnc3ccc(/C=C4\SC(=O)NC4=O)nc32)c1 [Example 8, (5Z)-5-{[3-(3,5-dimethoxyphenyl)-3H-imidazo[4,5-b]pyridin-5-yl]methylene}-1,3-thiazolidine-2,4-dione] | 
